Test results from patent publication US10301294B2, “Compounds for the treatment of tuberculosis” (priority 2013, dated 2019).

How the values were obtained:
Type in all cases: cell-based
[1] = system: carbon-starved M. tuberculosis H37Rv; experiment: microbe, parasite or virus in culture; details: for IC90: Mycobacterium tuberculosis, H37RV, read-out: Against carbon starving non-replicating Mtb IC90
[2] = system: carbon-starved M. tuberculosis H37Rv; experiment: Non-replicating IC90 determination by luciferase (carbon-starved cells); details: Mycobacterium tuberculosis, H37RV; non-replicating carbon-starved Mtb, luciferase; three independent experiments in triplicate; read-out: TB Growth Inhibition Activity, IC90 Non-replicating_luciferase
[3] = Cytotoxicity against HeLa; details: human, HeLa cells, 26.0 uM highest concentration measured
[4] = Cytotoxicity against HepG2; details: human, HepG2 cells, 26.0 uM highest concentration measured
[5] = Cytotoxicity against Hek 293; details: human, HEK293 cells, 26.0 uM highest concentration measured
[6] = system: replicating M. tuberculosis H37Rv; experiment: microbe, parasite or virus in culture; details: Mycobacterium tuberculosis, H37RV, three independent experiments in triplicate, read-out: TB Growth Inhibition Activity, IC90 Replicating_logarithmic (converted)

Structure (SMILES)	IC90 [1]	IC90 [2]	IC50 [3]	IC50 [4]	IC50 [5]	IC90 [6]	Against carbon starving non-replicating Mtb IC90 (uM) [1]
c1ccc(-c2nnc(SC3CCCCC3)o2)cc1 [drawing 262]	31 µM	–	–	–	–	–	–
c1ccc(-c2nnc(SCCC3OCCCO3)o2)cc1 [drawing 258]	10 µM	–	–	–	–	–	–
Fc1ccc(Cn2cc(CSc3nnc(-c4ccc(Cl)cc4)o3)nn2)cc1	–	2 µM	> 26 µM	> 26 µM	> 26 µM	> 62 µM	–
Fc1ccc(Cn2cc(CSc3nnc(-c4ccc(F)cc4)o3)nn2)cc1	–	4 µM	> 26 µM	> 26 µM	> 26 µM	> 62 µM	–
COc1cccc(-c2nnc(SCc3ccccc3)o2)c1	–	8 µM	> 26 µM	> 26 µM	> 26 µM	250 µM	–
c1ccc(CSc2nnc(-c3cccnc3)o2)cc1	–	2 µM	> 26 µM	> 26 µM	> 26 µM	125 µM	–
c1ccc(-c2nnc(SCc3ccccn3)o2)cc1 [drawing 142]	–	3 µM	> 26 µM	> 26 µM	> 26 µM	100 µM	–
c1ccc(CSc2nnc(C3CCCC3)o2)cc1	–	0.5 µM	> 26 µM	> 26 µM	> 26 µM	125 µM	–
c1ccc(CSc2nnc(-c3ccccn3)o2)cc1	–	4 µM	> 26 µM	> 26 µM	> 26 µM	125 µM	–
CC(C)c1nnc(SCc2ccccc2)o1	–	2 µM	> 26 µM	> 26 µM	> 26 µM	125 µM	–
c1ccc(-c2nnc(SCc3cccnc3)o2)cc1 [drawing 143]	–	8 µM	> 26 µM	> 26 µM	> 26 µM	125 µM	–
Fc1ccc(-c2nnc(SCc3cn(Cc4ccccc4)nn3)o2)cc1	–	2 µM	> 26 µM	> 26 µM	> 26 µM	> 62 µM	–
c1ccc(-n2cc(CSc3nnc(C4CCC4)o3)nn2)cc1	–	2 µM	> 26 µM	> 26 µM	> 26 µM	62 µM	–
c1ccc(CSc2nnc(-c3ccccc3)s2)cc1	–	8 µM	> 26 µM	> 26 µM	> 26 µM	62 µM	–
Fc1ccc(CSc2nnc(-c3ccccc3)o2)cc1 [drawing 259]	62 µM	–	–	–	–	–	–
Clc1ccc(-c2nnc(SCc3ccccc3)o2)cc1	–	4 µM	> 26 µM	> 26 µM	> 26 µM	500 µM	–
[O-][n+]1ccccc1CSc1nnc(-c2ccccc2)o1 [drawing 263]	–	–	–	–	–	–	None
Cc1ccccc1CSc1nnc(-c2ccccc2)o1	–	8 µM	> 26 µM	> 26 µM	> 26 µM	250 µM	–
c1ccc(CCc2nnc(-c3ccccc3)o2)cc1	–	0.5 µM	> 26 µM	> 26 µM	> 26 µM	250 µM	–

Structure (SMILES)	IC90 [1]	IC90 [2]	IC50 [3]	IC50 [4]	IC50 [5]	IC90 [6]	Against carbon starving non-replicating Mtb IC90 (uM) [1]
Fc1cccc(-c2nnc(SCc3ccccc3)o2)c1	–	1 µM	> 26 µM	> 26 µM	> 26 µM	125 µM	–
Fc1ccccc1CSc1nnc(-c2ccccc2)o1	–	1 µM	> 26 µM	> 26 µM	> 26 µM	250 µM	–
[O-][S+](Cc1ccccn1)c1nnc(-c2ccc(Cl)cc2)o1 (centres unmarked) [drawing 264]	10 µM	–	–	–	–	–	–
Fc1ccccc1-c1nnc(SCc2ccccc2)o1	–	2 µM	> 26 µM	> 26 µM	> 26 µM	125 µM	–
Clc1ccccc1CSc1nnc(-c2ccccc2)o1	–	2 µM	> 26 µM	> 26 µM	> 26 µM	250 µM	–
Brc1ccc(-c2nnc(SCc3ccccn3)o2)cc1 [drawing 266]	< 8 µM	–	–	–	–	–	–
Cc1cccc(CSc2nnc(-c3ccccc3)o2)c1	–	1 µM	> 26 µM	> 26 µM	> 26 µM	125 µM	–
FC(F)(F)Oc1cccc(-c2nnc(SCc3ccccc3)o2)c1	–	31 µM	> 26 µM	> 26 µM	> 26 µM	250 µM	–
O=S(=O)(Cc1ccccc1)c1nnc(-c2ccccc2)o1 [drawing 80]	–	8 µM	> 26 µM	> 26 µM	> 26 µM	125 µM	–
c1ccc(CSc2nnc(-c3ccccc3)o2)cc1	–	8 µM	> 26 µM	> 26 µM	> 26 µM	62 µM	–
FC1(F)CN(CCSc2nnc(-c3ccccc3)o2)C1	–	1 µM	> 26 µM	> 26 µM	> 26 µM	250 µM	–
Fc1cccc(CSc2nnc(-c3ccccc3)o2)c1	–	2 µM	> 26 µM	> 26 µM	> 26 µM	250 µM	–
CS(=O)(=O)c1cccc(CSc2nnc(-c3ccccc3)o2)c1	–	250 µM	> 26 µM	> 26 µM	> 26 µM	250 µM	–
c1ccc(-c2nnc(SCc3ncco3)o2)cc1	–	16 µM	> 26 µM	> 26 µM	> 26 µM	31 µM	–
c1ccc(CSc2nnc(Cc3ccccc3)o2)cc1	–	4 µM	> 26 µM	> 26 µM	> 26 µM	500 µM	–
Fc1ccc(-c2nnc(SCc3ccccc3)o2)cc1	–	2 µM	> 26 µM	> 26 µM	> 26 µM	125 µM	–
O=S(=O)(Cc1ccccc1)c1nnc(-c2ccccc2)o1 [drawing 268]	62 µM	–	–	–	–	–	–
Clc1ccccc1-c1nnc(SCc2ccccc2)o1	–	32 µM	> 26 µM	> 26 µM	> 26 µM	250 µM	–
Clc1ccc(-c2nnc(SCc3cn(Cc4ccccc4)nn3)o2)cc1 [drawing 156]	–	2 µM	> 26 µM	> 26 µM	> 26 µM	> 62 µM	–

Structure (SMILES)	IC90 [1]	IC90 [2]	IC50 [3]	IC50 [4]	IC50 [5]	IC90 [6]	Against carbon starving non-replicating Mtb IC90 (uM) [1]
Cc1ccc(-c2nnc(SCc3ccccc3)o2)cc1	–	4 µM	> 26 µM	> 26 µM	> 26 µM	125 µM	–
c1ccc(CCc2nnc(SCc3ccccc3)o2)cc1	–	32 µM	> 26 µM	> 26 µM	> 26 µM	250 µM	–
FC(F)(F)c1cccc(CSc2nnc(-c3ccccc3)o2)c1	–	4 µM	> 26 µM	> 26 µM	> 26 µM	250 µM	–
c1ccc(-c2nnc(SCc3ccncc3)o2)cc1 [drawing 144]	–	31 µM	> 26 µM	> 26 µM	> 26 µM	250 µM	–
c1ccc(Cn2cc(CSc3nnc(C4CCCC4)o3)nn2)cc1	–	31 µM	> 26 µM	> 26 µM	> 26 µM	62 µM	–
COc1ccccc1-c1nnc(SCc2ccccc2)o1	–	125 µM	> 26 µM	> 26 µM	> 26 µM	250 µM	–
c1ccc(-c2nnc(SCc3cscn3)o2)cc1	–	4 µM	> 26 µM	> 26 µM	> 26 µM	62 µM	–
c1ccc(Cn2cc(CSc3nnc(C4CCC4)o3)nn2)cc1	–	8 µM	> 26 µM	> 26 µM	> 26 µM	> 62 µM	–
Fc1ccc(Cn2cc(CSc3nnc(C4CCCC4)o3)nn2)cc1	–	31 µM	> 26 µM	> 26 µM	> 26 µM	> 62 µM	–
CS(=O)(=O)c1ccccc1-c1nnc(SCc2ccccc2)o1	–	62 µM	> 26 µM	> 26 µM	> 26 µM	500 µM	–
FC(F)(F)Oc1ccccc1CSc1nnc(-c2ccccc2)o1	–	4 µM	> 26 µM	> 26 µM	> 26 µM	500 µM	–
Fc1ccc(-c2nnc(SCc3cn(-c4ccccc4)nn3)o2)cc1	–	2 µM	> 26 µM	> 26 µM	> 26 µM	> 62 µM	–
Fc1ccc(Cn2cc(CSc3nnc(C4CCC4)o3)nn2)cc1	–	8 µM	> 26 µM	> 26 µM	> 26 µM	> 62 µM	–
c1ccc(CSc2nnc(-c3cscn3)o2)cc1	–	4 µM	> 26 µM	> 26 µM	> 26 µM	125 µM	–
FC(F)(F)c1ccccc1-c1nnc(SCc2ccccc2)o1	–	62 µM	> 26 µM	> 26 µM	> 26 µM	500 µM	–
CN(Cc1ccccc1)c1nnc(-c2ccccc2)o1	–	0.5 µM	> 26 µM	> 26 µM	> 26 µM	250 µM	–
CN(C)CCSc1nnc(-c2ccccc2)o1	–	16 µM	> 26 µM	> 26 µM	> 26 µM	500 µM	–
c1ccc(-n2cc(CSc3nnc(C4CCCC4)o3)nn2)cc1	–	4 µM	> 26 µM	> 26 µM	> 26 µM	62 µM	–
Clc1ccc(-c2nnc(SCc3cn(-c4ccccc4)nn3)o2)cc1 [drawing 164]	–	1 µM	> 26 µM	> 26 µM	> 26 µM	> 62 µM	–
